Assay results taken from patent US9109041B2, “Analog compounds of analgesic peptides derived from the venom of crotalus durissus terrificus snakes, their uses, compositions, methods of preparation and purification” (priority 2004, dated 2015).

Tested on: allodynia induced by constriction of the sciatic nerve
Assay: allodynia induced by chronic constriction of the sciatic nerve (von Frey hairs)
Assay type: in vivo, rat
Details: saline + antagonist alone i.pl. (ICI 10, nor-BNI 50, CTOP 20 μg/paw); for paw withdrawal threshold (allodynia), FM 1 h: 1 h after treatment; for paw withdrawal threshold (allodynia), FM 3 h: 3 h after treatment; for paw withdrawal threshold (allodynia), BM: before surgery; for paw withdrawal threshold (allodynia), IM: day 14, before treatment
Protocol: For the induction of neuropathic pain, surgery was performed in the sciatic nerve, in accordance with the method described by Bennett, G. J and Xie, Y. K. (Pain, 33:87-107, 1988). The animals were anesthetized with halothane. The sciatic nerve was exposed in the middle region of the thigh, moving away the femoral biceps muscle. Close to the trifurcation of the sciatic nerve, 7 mm of distance from the trifurcation, 4 loose ligations were performed (chromed catgut 4-0) around it, distant from each other in approximately 1 mm. The bindings were performed along the nerve, up to 4-5 mm from the initial point. The incision was sutured in layers, using silk suture thread number 4-0.
Allodynia was evaluated for quantitative testing, in response to tactile stimulus applied to the paws of the rat, according to the method described by Chaplan el al. (1994), modified. In this test, the rats were placed, individually, in plastic cages, with meshed wire at the bottom, to allow access to the paws of these animals. Briefly, a logarithmic series of 10 calibrated Semmes-Weinstein monofilaments (von Frey hairs, Aesthesiometer Semmer-Weinstein, Stoelting Co., E.U.A) was applied to the right hind paw to determine the stimulus intensity threshold stiffness required to elicit a paw withdrawal response. Log stiffness of the hairs is determined by log 10 (mg×10) having the following values (the value in grams is between parenthesis): 3.61 (0.407 g); 3.84 (0.692 g); 4.08 (1.202 g); 4.17 (1.479 g); 4.31 (2.041 g); 4.56 (3.630 g); 4.74 (5.495 g); 4.93 (8.511 g); 5.07 (11.749 g) and 5.18 (15.136 g). It is important to point out that the filaments with weight greater than 15.136 g were not employed in the studies of allodynia.
The filaments were applied, one by one, perpendicularly, under the plantar area of both hind paws and maintained for a period of 8 seconds. The filament capable of eliciting the withdrawal of the paw, two consecutive times, was considered as the force in grams necessary to elicit the response (100% of response). In the absence of a response to the greater stimulus (15.135 g), this filament was considered as cut value.
The behavioral responses were used to calculate the 50% paw withdrawal threshold (absolute threshold), by fitting a gaussian integral psychometric function, using a maximum-likelihood fitting method. This fitting method allows parametric analyses.
The period of the application of the test and the treatments were the same as those used for determination of hyperalgesia (Table 12).
The results were analyzed by comparing the means of the basal and initial measurements or, when determined, by comparing the means obtained in the different experimental groups.
For this purpose, the animals were treated with CTOP, a specific μ receptor antagonist (20 μg/paw), nor-BNI, a specific κ receptor antagonist (50 μg/paw) or with ICI 174,864, a specific δ receptor antagonist (10 μg/paw). The antagonists were injected, by intraplantar route. The peptide was administered in the dose of 5 μg/kg, orally, immediately before the injection of the opioid antagonists.
The results were analyzed comparing the mean values of the basal and initial measurements, or of the initial and final measurements or, when determined, by comparing the mean values obtained in the different experimental groups (Tables 15 and 16).

Oc1ccc2c3c1O[C@H]1c4[nH]c5c(c4C[C@@]4(O)[C@@H](C2)N(CC2CC2)CC[C@]314)C[C@@]1(O)[C@H]2Cc3ccc(O)c4c3[C@@]1(CCN2CC1CC1)[C@H]5O4 [nor-BNI, nor-Binalthorphimine, reference compound]
paw withdrawal threshold (allodynia), FM 1 h: 4.22 ± 0 log 10 (mg × 10) | paw withdrawal threshold (allodynia), FM 3 h: 4.22 ± 0 log 10 (mg × 10) | paw withdrawal threshold (allodynia), BM: 5.08 ± 0 log 10 (mg × 10) | paw withdrawal threshold (allodynia), IM: 4.22 ± 0 log 10 (mg × 10)

CTOP [reference compound]
paw withdrawal threshold (allodynia), FM 1 h: 4.22 ± 0 log 10 (mg × 10) | paw withdrawal threshold (allodynia), FM 3 h: 4.22 ± 0 log 10 (mg × 10) | paw withdrawal threshold (allodynia), BM: 5.08 ± 0 log 10 (mg × 10) | paw withdrawal threshold (allodynia), IM: 4.22 ± 0 log 10 (mg × 10)
